Data reported in patent US20260158017A1, “KIF18A INHIBITOR” (WIGEN BIOMEDICINE TECHNOLOGY (SHANGHAI) CO., LTD., priority 2021, published 2026).
pEC50, pIC50: −log10 of the molar value.

What was measured:
[1] = system: Histone H3 Ser10 sites in HT29 cells; test: Phosphorylation assay of histone H3 Ser10 sites in HT29 cells (immunofluorescence assay); assay type: cell-based; conditions: Homo sapiens, HT-29, 6 h after addition, FITC/DAPI ratio
Protocol: Biological Example 5. Phosphorylation Assay of Histone H3 Ser10 Sites in HT29 Cells (Immunofluorescence Assay)
HT29 cells were seeded in a 96-well plate (Fisher 160376) at 8000 cells/well. The next day, the serially diluted compounds were added. 6 h after the addition of the compounds, the cells were washed once with 1×PBS, immobilized with 4% PFA for 15 min, further washed three times with 1×PBS, and permeabilized with 0.02% Triton-X100 for 10 min. A blocking buffer was then added for blocking for 15-30 min, and 1:3000-diluted primary antibodies (Phospho-Histone H3 (Ser10) (D7N8E) XP® Rabbit mAb #53348) were added. The plate was placed at 4° C. overnight. The next day, the cells were washed three times with 1×PBS, and 1:1000-diluted secondary antibodies (Fluorescein (FITC)-conjugated Affinipure Goat Anti-Rabbit IgG (H+L)) were added. The cells were incubated in the dark for 1-2 h and washed three times with 1×PBS. The nuclei were stained with DAPI, and after the staining was completed, photographs were taken using an MD ImageXpress Pico personal high-content imaging analysis system. The ratio of phosphorylation (FITC/DAPI) at H3 Ser10 sites in HT29 cells was quantified. To evaluate the effects of the compounds on the mitosis phase of HT29 cells, the EC50 values of the compounds were calculated.

HT-29 cells = test: In vitro anti-proliferative activity against HT-29 cells (intracellular ATP content, 72 h); assay type: cell-based; conditions: Homo sapiens, 72 h after dosing
Protocol: Biological Example 2. In Vitro Anti-Proliferative Activity of the Compounds of the Present Invention Against HT-29 Cells
(§1) HT-29 cells were seeded on a 384-well plate at 3000 cells/well. After overnight adherence culture, DMSO or the compounds serially 1:5-diluted from 5 μM were added. The viability of the cells was assessed 72 h after dosing by measuring the intracellular ATP content. The inhibition percentages of viable cells by the compounds were calculated by comparing with the DMSO group, and the IC50 values were also calculated.

[2] = system: HT29 subcutaneous xenograft tumor; test: In vivo pharmacodynamic study, mouse HT29 subcutaneous xenograft tumor model; design: species or system BALB/c nude mice; conditions: for Tumor volume on day 1 of treatment / Tumor volume on day 28 of treatment / TGI (tumor growth inhibition): 80 mg/kg intragastric once daily; for Tumor volume on day 1 of treatment: baseline day 1; for TGI (tumor growth inhibition): day 28 vs day 1
Protocol: Biological Example 4. In Vivo Pharmacodynamic Study-Mouse HT29 Subcutaneous Xenograft Tumor Model
BALB/c nude mice were inoculated subcutaneously with 5×10^6 HT29 cells on the left dorsal side. After the tumors grew to 100-150 mm^3, the mice were randomly divided into the following groups for intragastric administration once daily: group 1: vehicle control group; group 2: compound 661 (80 mg/kg); group 3: compound 669 (80 mg/kg); group 4: compound 677 (80 mg/kg); group 5: compound 714 (80 mg/kg); group 6: compound 727 (80 mg/kg); group 7: compound 740 (80 mg/kg); and group 8: AMG650 (80 mg/kg). The tumor volume was measured twice weekly and at the end of treatment.

HCT116 cells = test: In vitro anti-proliferative activity against HCT116 cells (intracellular ATP content, 72 h); assay type: cell-based; conditions: for pIC50: Homo sapiens, HCT-116, 72 h after dosing
Protocol: Biological Example 3. In Vitro Anti-Proliferative Activity of the Compounds of the Present Invention Against HCT116 Cells
as §1, with “HCT116” for “HT-29”, “IC 50” for “IC50”

[3] = target: T1, Recombinant human KIF18A (1-467His-tagged) protein (Homo sapiens, UniProt Q8NI77); test: KIF18A enzyme assay (microtubule-stimulated ATPase activity, ADP-Glo); assay type: biochemical; conditions: 30 nM KIF18A, 75 μM ATP, 30 μg/mL pig microtubules; read-out: Inhibitory activity against KIF18A IC50
T1 construct: Recombinant human KIF18A (1-467His-tagged) protein; His; made in house
T1 sequence (Q8NI77 1-467): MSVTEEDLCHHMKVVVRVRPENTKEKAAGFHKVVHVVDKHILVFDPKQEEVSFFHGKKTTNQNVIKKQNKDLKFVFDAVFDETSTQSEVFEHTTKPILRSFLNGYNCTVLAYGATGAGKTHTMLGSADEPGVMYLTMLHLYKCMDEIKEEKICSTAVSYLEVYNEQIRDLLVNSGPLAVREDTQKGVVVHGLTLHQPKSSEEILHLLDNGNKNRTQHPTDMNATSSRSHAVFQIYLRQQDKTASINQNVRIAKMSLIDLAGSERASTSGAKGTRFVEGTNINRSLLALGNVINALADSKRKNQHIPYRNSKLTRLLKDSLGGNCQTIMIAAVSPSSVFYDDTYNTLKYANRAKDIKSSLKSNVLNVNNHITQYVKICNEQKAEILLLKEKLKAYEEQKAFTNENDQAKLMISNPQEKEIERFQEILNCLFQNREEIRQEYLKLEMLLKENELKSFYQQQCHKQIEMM
T1 sequence (P02550 whole entry partner): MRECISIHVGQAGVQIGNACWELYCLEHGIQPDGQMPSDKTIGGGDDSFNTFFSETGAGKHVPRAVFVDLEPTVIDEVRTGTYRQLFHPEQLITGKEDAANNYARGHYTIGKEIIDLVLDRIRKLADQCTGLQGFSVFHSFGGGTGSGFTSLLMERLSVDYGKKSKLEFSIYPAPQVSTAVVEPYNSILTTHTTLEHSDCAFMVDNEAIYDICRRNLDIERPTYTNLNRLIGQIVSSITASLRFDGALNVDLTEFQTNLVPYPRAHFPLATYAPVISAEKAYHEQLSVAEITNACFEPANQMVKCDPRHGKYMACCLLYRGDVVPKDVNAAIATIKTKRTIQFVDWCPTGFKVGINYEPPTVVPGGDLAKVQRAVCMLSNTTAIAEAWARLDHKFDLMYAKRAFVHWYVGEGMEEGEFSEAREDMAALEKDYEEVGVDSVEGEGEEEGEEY
T1 sequence (P02554 whole entry partner): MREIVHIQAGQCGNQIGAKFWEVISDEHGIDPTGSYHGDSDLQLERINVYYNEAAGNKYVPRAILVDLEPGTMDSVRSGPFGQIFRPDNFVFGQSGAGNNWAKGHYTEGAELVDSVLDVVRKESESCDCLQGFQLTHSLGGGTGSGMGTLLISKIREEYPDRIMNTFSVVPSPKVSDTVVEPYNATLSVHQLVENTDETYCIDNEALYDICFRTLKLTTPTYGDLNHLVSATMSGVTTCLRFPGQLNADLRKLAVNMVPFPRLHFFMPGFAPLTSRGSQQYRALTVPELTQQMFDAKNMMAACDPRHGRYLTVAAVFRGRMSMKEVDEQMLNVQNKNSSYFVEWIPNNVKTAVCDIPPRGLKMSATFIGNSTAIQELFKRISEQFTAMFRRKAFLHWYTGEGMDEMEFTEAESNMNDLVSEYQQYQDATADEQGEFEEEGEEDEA
Summary of the method: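 Buffer 15 mM Tris pH 7.5, 10 mM MgCl2, 0.01% Pluronic F-68, 1 μM paclitaxel, 30 μg/mL pig microtubules; reactions at room temperature. IC50 from inhibition relative to DMSO.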

| pEC50 [1] | pIC50 (HT-29 cells) | pIC50 (HCT116 cells) | pIC50 [3] | SMILES | Tumor volume on day 1 of treatment [2] [mm^3] | Tumor volume on day 28 of treatment [2] [mm^3] | TGI (tumor growth inhibition) [2] [%] | Anti-proliferative activity against HCT116 cells (in words) (HCT116 cells) | Inhibitory effect on HT29 mouse subcutaneous xenograft tumor (in words) ([2]; 80 mg/kg, comparison with AMG650) |
| --- | --- | --- | --- | --- | --- | --- | --- | --- | --- |
| 7.34 | 7.26 | < 5.00 | ≥ 7.00 | O=C(Nc1ccc([N+](=O)[O-])c(N2CCC(F)(F)CC2)n1)c1ccc(NS(=O)(=O)CCO)cc1N1CCC2(CC1)CC2 [Compound 65] | – | – | – | – | – |
| 7.58 | 7.18 | < 5.00 | ≥ 7.00 | O=C(Nc1ccc(NS(=O)(=O)CCO)cc1N1CCC2(CC1)CC2)c1ccc([N+](=O)[O-])c(N2CCC(F)(F)CC2)n1 [Compound 161] | – | – | – | – | – |
| 8.08 | 7.95 | < 5.00 | ≥ 7.00 | COc1ccc(NC(=O)c2ccc(NS(=O)(=O)CCO)cc2N2CCC3(CC2)CC3)nc1N1CCC(F)(F)CC1 [Compound 257] | – | – | – | – | – |
| 8.07 | – | – | ≥ 7.00 | COc1ccc(NC(=O)c2ccc(S(=O)(=O)NCCO)cc2N2CCC3(CC2)CC3)nc1N1CCC(F)(F)CC1 [Compound 273] | – | – | – | – | – |
| 7.80 | 7.23 | < 5.00 | ≥ 7.00 | COc1ccc(C(=O)Nc2ccc(NS(=O)(=O)CCO)cc2N2CCC3(CC2)CC3)nc1N1CCC(F)(F)CC1 [Compound 321] | – | – | – | – | – |
| 7.37 | 7.13 | < 5.00 | ≥ 7.00 | COc1ccc(C(=O)Nc2cnc(NS(=O)(=O)CCO)cc2N2CCC3(CC2)CC3)nc1N1CCC(F)(F)CC1 [Compound 353] | – | – | – | – | – |
| 7.66 | 7.12 | < 5.00 | – | CNc1ccc(NC(=O)c2ccc(NS(=O)(=O)CCO)cc2N2CCC3(CC2)CC3)cc1N1CCC(F)(F)CC1 [Compound 641] | – | – | – | – | – |
| 7.16 | 7.15 | < 5.00 | – | CN(C)c1ccc(NC(=O)c2ccc(NS(=O)(=O)CCO)cc2N2CCC3(CC2)CC3)cc1N1CCC(F)(F)CC1 [Compound 645] | – | – | – | – | – |
| 7.63 | 7.59 | < 5.00 | – | COc1ccc(NC(=O)c2ccc(NS(=O)(=O)CCOC(C)=O)cc2N2CCC3(CC2)CC3)nc1N1CCC(F)(F)CC1 [Compound 661] | 121 | 704 | 61 | – | – |
| 7.55 | 7.46 | < 5.00 | – | COc1ccc(NC(=O)c2ccc(NS(=O)(=O)CCOC(=O)C(C)C)cc2N2CCC3(CC2)CC3)nc1N1CCC(F)(F)CC1 [Compound 663] | – | – | – | – | – |
| – | 7.59 | < 5.00 | – | COc1ccc(C(=O)Nc2ccc(NS(=O)(=O)CCOC(C)=O)cc2N2CCC3(CC2)CC3)nc1N1CCC(F)(F)CC1 [Compound 669] | 121 | 1158 | 30 | – | – |
| 7.41 | – | – | – | COc1ccc(NC(=O)c2ccc(NS(=O)(=O)CCOC(=O)[C@@H](N)C(C)C)cc2N2CCC3(CC2)CC3)nc1N1CCC(F)(F)CC1 [Compound 714] | 121 | 424 | 80 | – | stronger inhibitory effects |

| SMILES | pEC50 [1] | pIC50 (HT-29 cells) | pIC50 (HCT116 cells) | pIC50 [3] | Tumor volume on day 1 of treatment [2] [mm^3] | Tumor volume on day 28 of treatment [2] [mm^3] | TGI (tumor growth inhibition) [2] [%] | Anti-proliferative activity against HCT116 cells (in words) (HCT116 cells) | Inhibitory effect on HT29 mouse subcutaneous xenograft tumor (in words) ([2]; 80 mg/kg, comparison with AMG650) |
| --- | --- | --- | --- | --- | --- | --- | --- | --- | --- |
| Cc1cc(NC(=O)c2ccc(NS(=O)(=O)CCO)cc2N2CCC3(CC2)CC3)nc(N2CCC(F)(F)CC2)n1 [AMG650, reference compound] | 7.28 | 6.96 | < 5.00 | – | 121 | 649 | 64 | neither the compounds of the present invention nor AMG650 have anti-proliferative activity | – |
